What all share (assay type): in vivo
Data set [1] in a line: Pharmacokinetics in rat: half-life after i.v. administration. As to conditions: plasma, iv, 6 nmol/kg, male Sprague Dawley rats, approximately 4 rats per group, read-out: t½/h (half-life in rat) (converted). As for the experimental part:
In vivo pharmacokinetic studies in rats were performed with the GLP-1 derivatives of Examples 2, 10, 17-18, and 31, as described in the following. Semaglutide was included for comparison.
Male Sprague Dawley rats of same age with a body weight of approximately 400 g were obtained from Taconic (Denmark) and assigned to the treatments by simple randomisation on body weight, approximately 4 rats per group, so that all animals in each group were of similar body weight.
The GLP-1 derivatives (approximately 6 nmol/ml) were dissolved in 50 mM sodium phosphate, 145 mM sodium chloride, 0.05% tween 80, pH 7.4. Intravenous injections (1.0 ml/kg) of the compounds were given through a catheter implanted in the right jugular vein. Blood was sampled from vena sublingualis for 5 days post dosing. Blood samples (200 μl) were collected in EDTA buffer (8 mM) and then centrifuged at 4° C. and 10000 G for 5 minutes. Plasma samples were kept at −20° C. until analyzed for plasma concentration of the respective GLP-1 compound.
The plasma concentrations of the GLP-1 compounds were determined using a Luminescence Oxygen Channeling Immunoasssay (LOCI), generally as described for the determination of insulin by Poulsen and Jensen in Journal of Biomolecular Screening 2007, vol. 12, p. 240-247. The donor beads were coated with streptavidin, while acceptor beads were conjugated with a monoclonal antibody recognising a mid-/C-terminal epitope of the peptide. Another monoclonal antibody, specific for the N-terminus, was biotinylated. The three reactants were combined with the analyte and formed a two-sited immuno-complex. Illumination of the complex released singlet oxygen atoms from the donor beads, which were channeled into the acceptor beads and triggered chemiluminescence which was measured in an Envision plate reader. The amount of light was proportional to the concentration of the compound.
Plasma concentration-time profiles were analyzed using Phoenix WinNonLin ver. 6.2, Pharsight Inc., Mountain View, Calif., USA), and the half-life (T1/2) calculated using individual plasma concentration-time profiles from each animal.

Data set [2] in a line: Estimate of oral bioavailability: gut injection in rat (caprate), exposure in plasma. To be noted: injection in jejunum, 1000 uM in 55 mg/ml sodium caprate, plasma concentration (pM) at 30 min divided by dosing solution concentration (μM), mean n=4. Summed up:
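Male Sprague Dawley rats (~240 g, n=4) received 100 μl of 1000 uM derivative in 55 mg/ml sodium caprate by catheter into proximal or mid jejunum. Tail-vein EDTA plasma was sampled up to 240 min. Peptide was quantified by two-antibody bead chemiluminescence immunoassay, giving mean concentration-time profiles (pmol/l).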

Data set [3] is described as follows: Half-life in minipigs after i.v. administration. As to conditions: minipig, plasma, iv, male Göttingen minipigs, read-out: terminal half-life (converted). The source says:
By terminal half-life is generally meant the period of time it takes to halve a certain plasma concentration, measured after the initial distribution phase.

Numbered stars: 1 amine (or outer) side, 2 acyl side, 3 side chain; on linkers, the order of the positions; unused ones are H or OH. Side chains are listed from the residue outwards. Peptide text beside a SMILES is read from it. * marks the point of attachment. Decanoyl(10-(4-HOOC-PhO)) = O=C(O)c1ccc(OCCCCCCCCCC(=O)*)cc1; γGlu = O=C(O)[C@H](CCC(=O)[*:2])N[*:1]; AEEA = NCCOCCOCC(=O)O

In the case of `CC[C@H](C)[C@H](NC(=O)[C@H](Cc1ccccc1)NC(=O)[C@H](CCCCNC(=O)COCCOCCNC(=O)COCCOCCNC(=O)CC[C@H](NC(=O)CCCCCCCCCOc1ccc(C(=O)O)cc1)C(=O)O)NC(=O)[C@H](CCCNC(=N)N)NC(=O)[C@H](C)NC(=O)[C@H](C)NC(=O)[C@H](CCC(N)=O)NC(=O)[C@H](CCC(=O)O)NC(=O)[C@H](CCC(=O)O)NC(=O)[C@H](CC(C)C)NC(=O)[C@H](Cc1ccc(O)cc1)NC(=O)[C@H](CO)NC(=O)[C@H](CO)NC(=O)[C@@H](NC(=O)[C@H](CC(=O)O)NC(=O)[C@H](CO)NC(=O)[C@@H](NC(=O)[C@H](Cc1ccccc1)NC(=O)[C@@H](NC(=O)CNC(=O)[C@H](CCC(=O)O)NC(=O)[C@H](C)NC(=O)[C@@H](N)Cc1c[nH]cn1)[C@@H](C)O)[C@@H](C)O)C(C)C)C(=O)N[C@@H](CCC(=O)O)C(=O)N[C@@H](Cc1c[nH]c2ccccc12)C(=O)N[C@@H](CC(C)C)C(=O)N[C@H](C(=O)N[C@@H](CCCNC(=N)N)C(=O)NCC(=O)N[C@@H](CCCCNC(=O)COCCOCCNC(=O)COCCOCCNC(=O)CC[C@H](NC(=O)CCCCCCCCCOc1ccc(C(=O)O)cc1)C(=O)O)C(=O)NCC(=O)N[C@@H](CCC(=O)O)C(=O)NCC(=O)O)C(C)C` [Example 2, N^ε27-[2-[2-[2-[[2-[2-[2-[[(4S)-4-carboxy-4-[10-(4-carboxyphenoxy)decanoylamino]butanoyl]amino]ethoxy]ethoxy]acetyl]amino]ethoxy]ethoxy]acetyl], N^ε36-[2-[2-[2-[[2-[2-[2-[[(4S)-4-carboxy-4-[10-(4-carboxyphenoxy)decanoylamino]butanoyl]amino]ethoxy]ethoxy]acetyl]amino]ethoxy]ethoxy]acetyl]-[Glu^22,Arg^26,Lys^27,Glu^30,Arg^34,Lys^36]-GLP-1-(7-37)-peptidyl-Glu-Gly] (H-HAEGTFTSDVSSYLEEQAARK([AEEA-AEEA-γGlu-Decanoyl(10-(4-HOOC-PhO))])FIEWLVRGK([AEEA-AEEA-γGlu-Decanoyl(10-(4-HOOC-PhO))])GEG-OH; N-terminus and C-terminus assumed), the half-life in data set [1] was 1560 min; in data set [3], 3.62 days. Also, the “Dose-corrected exposure at 30 min” value in data set [2] is on record as 98.

Values taken from patent publication US11117947B2, “Double-acylated GLP-1 derivatives” (Novo Nordisk A/S, priority 2011, dated 2021).
